This is an account of results in patent US20020165237A1, “Treatment of the insulin resistance syndrome” (priority 2000, published 2002).

The subject of assay [1] is ob/ob mice. The experiment in a line: Plasma glucose, cGMP and triglyceride levels in ob/ob mice, oral gavage, 5 day study. The format is in vivo. The note with it: mean ± SEM; for Changes in Plasma Glucose Concentrations: over 5 day period; for Plasma Triglyceride Level: day 5, 3 hours after dose. On the procedure:
(§1) The selective PDE5 inhibitor compounds to be tested were solubilized in 10% DMSO/0.1% pluronics and dosed via oral gavage using mouse oral feeding needles (20 gauge, Popper & Sons, Inc., New Hyde Park, N.Y.). A volume of 4 ml/kg weight was administered for each dose. Compounds were tested at doses ranging from 1-50 mg/kg. Alternatively, the test selective PDE5 inhibitor compound was administered in the drinking water and found to produce similar reductions in plasma glucose and triglycerides to the reductions observed for the same compound when administered by oral gavage.
(§2) Male ob/ob mice obtained from Jackson Laboratories (Bar Harbor, ME) were used in the studies at 6 to 10 weeks of age. Mice were housed five per cage and allowed free access to D11 mouse chow (Purina, Brentwood, Mo.) and water.
(§3) Mice were allowed to acclimate to the Pfizer animal facilities for 1 week prior to the start of the study. On day one, retro-orbital blood samples were obtained and plasma glucose was determined as described hereinafter. […] On day one, mice were dosed with vehicle or a test selective PDE5 inhibitor compound only in the afternoon. Subsequently, mice were dosed twice a day on day 2-4 in the morning and in the afternoon. On day 5, the mice received an a.m. dose and bled 3 hours later for plasma preparation for glucose and triglyceride analysis as described below. Alternatively, test selective PDE5 inhibitor compound was administered in the drinking water commencing on the afternoon of day 1 and continuing through day 5, when mice were then bled for plasma preparation for glucose and triglyceride analysis as described below. Terminal plasma samples were collected on day 5 following the retro-orbital sinus bleed as described below. Body weight was measured on days 1 and 5 of the study, and food consumption was assessed over the 5 day period.
(§4) On the morning of the last day of the study mice were dosed with test compound or vehicle at approximately 8:00 am. Three hours after dosing, 25 μL of blood was obtained via the retro-orbital sinus and added to 100 μL of 0.025% heparinized-saline in Denville Scientific microtubes. The tubes were spun at the highest setting in a Beckman Microfuge 12 for 2 minutes. Plasma was collected for plasma glucose and triglyceride determination. The mice were then sacrificed by decapitation and ˜1 ml of blood was collected in Becton-Dickinson Microtainer brand plasma separator tubes with lithium heparin. The tubes were spun in a Beckman Microfuge 12 at the maximum setting for five minutes. Plasma was collected in 1.5 ml Eppendorf tubes and snap frozen in liquid nitrogen. Plasma samples were stored at −80° C. until analyzed.
(§5) Plasma glucose and triglycerides were measured using the Alcyon Clinical Chemistry Analyzer (Abbott Laboratories, Abbott Park, Ill.) using kits supplied by Abbott. Plasma cGMP was measured using the Biotrak enzyme-immunoassay system by Amersham (Piscataway, N.J.). Via a similar technique the plasma insulin can be assessed by the Mercodia ELISA Insulin kit by ALPCO (Uppsala, Sweden). All assays were conducted according to instructions provided by the manufacturers.
(§6) Comparisons between drug treatments and appropriate vehicles were done by Student's t-test.

Assay [2] relates to non-diabetic subjects with the insulin resistance syndrome. The experiment in a line: Clinical Trial Data 1: 28-day clinical trial with sildenafil, serum triglyceride levels. The format is in vivo, human. The note with it: for Fall in serum triglycerides from baseline / Fall in serum triglyceride levels: 28 days; for Fall in serum triglyceride levels: non-diabetic subjects with IRS, preliminary data. On the procedure:
In a 28-day clinical trial with sildenafil, serum triglyceride levels were obtained before and at the end of dosing from non-diabetic subjects. Doses included in the study were 10 mg, 25 mg and […] of sildenafil or placebo, dosed once daily. These subjects had the insulin resistance syndrome, as defined by the risk factors as defined hereinbefore. Data are presented in tables 5 and 6 below to illustrate that subjects had evidence of the insulin resistance syndrome. Coronary artery disease (CAD)/ischaemic heart disease (1HD) is one clinical end-point in subjects having the Insulin Resistance Syndrome. For this reason the presence of CAD/IHD was taken as evidence to support the existence of the Insulin Resistance Syndrome in patients with only one of the defined risk factors.

The subject of assay [3] is ob/ob mice. Briefly: Plasma glucose and triglyceride levels in ob/ob mice, compound administered in the drinking water, 5 day study. It is filed as in vivo. The note with it: for Plasma Triglyceride Level: day 5, mean ± SEM; for Changes in Plasma Glucose Concentrations: over 5 day period, mean ± SEM. Here is the method:
as §1, §2, §3, §4, §5, §6

Setting [4] is: 10 mg once daily, baseline 255 mg/dl.
Where [5] appears, read: 25 mg once daily, baseline 213 mg/dl.
Setting [6] is: 50 mg once daily, baseline 191 mg/dl.

Structures are written as SMILES.

Regarding `CCCOc1ccc(S(=O)(=O)N2CCN(CC)CC2)cc1-c1nc2c(CC)n(Cc3ccccn3)nc2c(=O)[nH]1` [PDE5 A, 3-ethyl-5-[5-(4-ethylpiperazin-1-ylsulphonyl)-2-n-propoxyphenyl]-2-(pyridin-2-yl)methyl-2,6-dihydro-7H-pyrazolo[4,3-d]pyrimidin-7-one], the “Changes in Plasma Glucose Concentrations” value was -115 ± 34 mg/dL in assay [1] (10 mg/kg oral gavage twice a day) and -105 ± 25 mg/dL in assay [1] (50 mg/kg oral gavage twice a day). For the same compound, the “Plasma Triglyceride Level” value in assay [1] (10 mg/kg oral gavage) was 163 ± 10 mg/dL.
Take `CCCc1nn(C)c2c(=O)[nH]c(-c3cc(C(=O)CN4CCOCC4)ccc3OCC)nc12` [PDE5 B, 5-(2-ethoxy-5-morpholinoacetylphenyl)-1-methyl-3-n-propyl-1,6-dihydro-7H-pyrazolo[4,3-d]pyrimidin-7-one]: in assay [1] (25 mg/kg oral gavage twice a day), the “Changes in Plasma Glucose Concentrations” value is -97 ± 32 mg/dL. In assay [1] (25 mg/kg oral gavage), the “Plasma Triglyceride Level” value is given as 143 ± 7^ mg/dl.
`CCCc1nn(C)c2c(=O)[nH]c(-c3cc(S(=O)(=O)N4CCN(C)CC4)ccc3OCC)nc12` [PDE5 C, 5-[2-ethoxy-5-(4-methyl-1-piperazinylsulphonyl)phenyl]-1-methyl-3-n-propyl-1,6-dihydro-7H-pyrazolo[4,3-d]pyrimidin-7-one]: the “Fall in serum triglycerides from baseline” value in assay [2] (setting [4]) is listed as “about 40%”; in assay [2] (setting [5]), approximately 31%; in assay [2] (setting [6]), approximately 12%. In addition, the “Fall in serum triglyceride levels” value in assay [2] (setting [4]) was 100.3 mg/dL; in assay [2] (setting [5]), 67.3 mg/dL; in assay [2] (setting [6]), 23.9 mg/dL. In assay [2] (sildenafil group vs placebo, p=0.0457), the “Reduction of serum triglycerides compared to placebo” value is on record as “statistically significantly different compared to placebo”. Moreover, the “HDL compared to placebo” value in assay [2] (sildenafil group vs placebo, p=0.0539) is given as “trend”. The entries for the “Plasma Triglyceride Level” value in assay [3] (9 mg/kg in the drinking water), in assay [3] (22 mg/kg in the drinking water) and in assay [3] (45 mg/kg in the drinking water) were 163 ± 14 mg/dL, 212 ± 20 mg/dL and 151 ± 10 mg/dL, respectively. The entries for the “Changes in Plasma Glucose Concentrations” value in assay [3] (9 mg/kg in the drinking water), in assay [3] (22 mg/kg in the drinking water) and in assay [3] (45 mg/kg in the drinking water) were -27 ± 34 mg/dL, -15 ± 27 mg/dL and −36 ± 22^ mg/dl, respectively.
